Source: patent US4906565A, “Method for the selective detection of microbial nucleotides” (Minnesota Mining and Manufacturing Company, priority 1986, dated 1990)

How the values were obtained:
Type in all cases: biochemical
firefly luciferase [1] = biological target: T1, firefly luciferase (Photinus pyralis, UniProt P08659); test: Effect of inhibitor on the bioluminescent assay of ATP
T1 construct: purchased Lumac/3M Lumit PM
Protocol: Assay: from each sample triplicate 100 μl aliquots were taken. In those aliquots ATP was measured as described.
Assay: from each sample triplicate 100 μl aliquots were taken. ATP in those aliquots was measured as described.
Assay: From each sample triplicate 100 μl aliquots were taken and ATP was measured as described.
(§1) Protocol: Eight samples were prepared using materials described above and previously, as shown in TABLE 7-1 and incubated for various periods of time (i.e., 0, 5, 10 and […]) before aliquots were taken and assayed as described.
(§2) Protocol: Increasing concentrations of hexokinase, with and without PCMPSA were prepared according to TABLE 8-1 using materials described above and previously.

hexokinase = test: Inhibition of hexokinase by PCMPSA, bioluminescent ATP assay; details: PCMPSA 1.0 mM
Protocol: as §1, §2

acetate kinase = biological target: T2, acetate kinase (Escherichia coli, UniProt P0A6A3); test: Inhibition of acetate kinase by PCMPSA; details: PCMPSA 0.5 mM
T2 construct: purchased Boehringer Mannheim
T2 sequence (P0A6A3 1-400): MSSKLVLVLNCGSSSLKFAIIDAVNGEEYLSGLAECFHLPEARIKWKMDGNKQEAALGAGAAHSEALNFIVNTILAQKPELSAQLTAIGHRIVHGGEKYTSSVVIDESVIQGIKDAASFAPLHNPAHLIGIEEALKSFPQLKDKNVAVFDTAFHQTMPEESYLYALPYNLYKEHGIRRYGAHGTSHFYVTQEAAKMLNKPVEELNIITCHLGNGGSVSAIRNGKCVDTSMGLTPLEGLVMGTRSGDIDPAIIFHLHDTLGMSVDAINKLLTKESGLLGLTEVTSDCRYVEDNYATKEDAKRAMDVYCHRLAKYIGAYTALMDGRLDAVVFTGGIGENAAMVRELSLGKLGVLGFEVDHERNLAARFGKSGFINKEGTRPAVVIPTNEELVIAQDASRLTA
Protocol: Acetate kinase was added to initiate enzyme activity. […] ATP in those aliquots was assayed as described.

glycerokinase = test: Inhibition of glycerokinase by PCMPSA in milk / orange juice samples; details: PCMPSA 0.5 mM; for % Control: control = same without glycerol; for RLU: milk/FRA, ATP added in SRA, 15 seconds
Protocol: Protocol: Samples were prepared containing: 1000 μl milk (local distributor, half-cream, sterilized); 800 μl FRA, 200 μl of a commercially available first releasing agent which is prepared in buffer for use with samples such as fruit juices (F-NRS, Lumac/3M); and 2.45 mM MgSO4. Glycerol, if present, was at a final concentration of 1.47 mM. ATP (10 mg/ml) was added in SRA to begin each assay, and PCMPSA if present, was also in that SRA aliquot in an amount sufficient to yield a final concentration of 0.5 mM.
(§3) To begin the assay, 100 μl of SRA/ATP ±PCMPSA was added to 50 μl of the appropriate sample. After 15 seconds (the period normally allowed for microbial nucleotide extraction using SRA) 100 μl Luciferase-luciferin solution was added and ATP was measured as described earlier.
(§4) Protocol: Samples with orange juice were prepared with 500 μl orange juice (Riedel, Netherlands, no preservatives, pasteurized), 500 μl buffered FRA, 3 mM glycerol, and with or without 0.5 mM PCMPSA. These were incubated over 0, 5, 10 and 20 minutes at four different glycerokinase concentrations.
(§5) Samples with milk were prepared similarly, but using 500 μl raw milk (fresh, local farmer) and 500 μl FRA in place of buffered FRA.

firefly luciferase [2] = biological target: T1, firefly luciferase; test: Effect of inhibitor on the bioluminescent assay of ATP; remark: listed apart in the source
[3] = ATP inactivation by glycerokinase or apyrase in milk / orange juice samples; details: apyrase 0.096 U/mL; raw milk:FRA 500:500 μl
Protocol: Protocol: Four samples were prepared as shown in TABLE 11-1 using materials described above and earlier, and aliquots taken at 0, 2.5, 5, 10 and 20 minutes. […]
as §3, §4, §5

[4] = PCMPSA 1.0 mM alone, no hexokinase, buffer
[5] = PCMPSA 1.0 mM alone, no hexokinase, in SRA
[6] = acetate kinase 1.7 U/ml, magnesium acetate 3 mM, FRA
[7] = glycerokinase 0.42 U/ml, glycerol 1.47 mM
[8] = glycerokinase 1.04 U/ml, glycerol 1.47 mM
[9] = glycerokinase 2.06 U/ml, glycerol 1.47 mM
[10] = orange juice, glycerokinase 0.85 U/ml
[11] = orange juice, glycerokinase 2.12 U/ml
[12] = orange juice, glycerokinase 4.25 U/ml
[13] = raw milk, glycerokinase 0.85 U/ml
[14] = raw milk, glycerokinase 2.12 U/ml
[15] = raw milk, glycerokinase 4.25 U/ml

T1 sequence (P08659 whole entry): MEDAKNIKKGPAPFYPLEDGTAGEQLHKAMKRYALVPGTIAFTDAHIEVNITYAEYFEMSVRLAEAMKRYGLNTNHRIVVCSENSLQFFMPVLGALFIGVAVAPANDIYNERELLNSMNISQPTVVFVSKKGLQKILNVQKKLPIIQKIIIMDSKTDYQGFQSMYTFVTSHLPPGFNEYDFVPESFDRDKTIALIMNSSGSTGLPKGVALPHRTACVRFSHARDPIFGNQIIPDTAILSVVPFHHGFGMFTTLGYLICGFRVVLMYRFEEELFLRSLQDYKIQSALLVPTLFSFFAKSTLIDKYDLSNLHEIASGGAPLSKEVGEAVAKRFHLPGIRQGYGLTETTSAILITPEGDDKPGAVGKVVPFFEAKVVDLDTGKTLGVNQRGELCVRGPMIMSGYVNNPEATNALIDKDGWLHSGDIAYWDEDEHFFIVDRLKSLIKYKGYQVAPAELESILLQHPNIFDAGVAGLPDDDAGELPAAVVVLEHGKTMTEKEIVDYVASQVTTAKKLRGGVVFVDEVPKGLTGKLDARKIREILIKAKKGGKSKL

## O=S(=O)(O)c1cc[c]([Hg][Cl])cc1 [PCMPSA, p-chloromercuriphenylsulfonic acid]
Firefly luciferase [1]; [4]
  RLU 10 min.: 29569 RLU
  RLU 15 min.: 29742 RLU
Firefly luciferase [1]; [5]
  RLU 0 min.: 26457 RLU
Firefly luciferase [1]; PCMPSA alone, sample 5, buffer
  interference with the bioluminescent assay (conclusion in words): does not substantially interfere
hexokinase; buffer
  inhibition of hexokinase (conclusion in words): at least partly inhibited
hexokinase; hexokinase 0.14 U/ml, buffer
  RLU 5 min.: 25884 RLU
  RLU 10 min.: 23717 RLU
  RLU 15 min.: 24771 RLU
hexokinase; hexokinase 0.14 U, in SRA
  RLU 5 min.: 15397 RLU
  RLU 10 min.: 15221 RLU
hexokinase; hexokinase 0.28 U/ml, buffer
  RLU 5 min.: 19116 RLU
  RLU 10 min.: 18228 RLU
  RLU 15 min.: 16919 RLU
hexokinase; hexokinase 0.28 U, in SRA
  RLU 5 min.: 11674 RLU
  RLU 10 min.: 12473 RLU
hexokinase; hexokinase 0.70 U/ml, buffer
  RLU 5 min.: 13353 RLU
  RLU 10 min.: 11760 RLU
  RLU 15 min.: 9375 RLU
hexokinase; hexokinase 0.70 U, in SRA
  RLU 5 min.: 4212 RLU
  RLU 10 min.: 3011 RLU
hexokinase; in the presence of SRA
  inhibition of hexokinase (conclusion in words): sufficiently inhibited
Acetate kinase
  inhibition of acetate kinase (conclusion in words): fairly effective
Acetate kinase; [6]
  RLU 0 min.: 4878 RLU
  RLU 5 min.: 2911 RLU
  RLU 10 min.: 2263 RLU
  RLU 15 min.: 2362 RLU
glycerokinase; [7]
  % Control: 91%
  RLU: 26407 RLU
glycerokinase; glycerokinase 0.42 U/ml, no glycerol (control)
  RLU: 28957 RLU
glycerokinase; [8]
  % Control: 78%
  RLU: 17213 RLU
glycerokinase; glycerokinase 1.04 U/ml, no glycerol (control)
  RLU: 21901 RLU
glycerokinase; [9]
  % Control: 58%
  RLU: 6404 RLU
glycerokinase; glycerokinase 2.06 U/ml, no glycerol (control)
  RLU: 15129 RLU
glycerokinase; orange juice and milk, glycerokinase up to 4.25 U/ml
  inhibition of glycerokinase (conclusion in words): sufficient to inhibit even the highest concentrations of enzyme used
glycerokinase; [10]
  RLU after 0 min: 142369 RLU
  RLU after 5 min: 145464 RLU
  RLU after 10 min: 150927 RLU
  RLU after 20 min: 155082 RLU
glycerokinase; [11]
  RLU after 0 min: 152487 RLU
  RLU after 5 min: 143354 RLU
  RLU after 10 min: 132269 RLU
  RLU after 20 min: 151899 RLU
glycerokinase; [12]
  RLU after 0 min: 116232 RLU
  RLU after 5 min: 131999 RLU
  RLU after 10 min: 123137 RLU
  RLU after 20 min: 125784 RLU
glycerokinase; [13]
  RLU after 0 min: 1382 RLU
  RLU after 5 min: 1494 RLU
  RLU after 10 min: 1348 RLU
  RLU after 20 min: 1280 RLU
glycerokinase; [14]
  RLU after 0 min: 829 RLU
  RLU after 5 min: 1340 RLU
  RLU after 10 min: 1342 RLU
  RLU after 20 min: 1233 RLU
glycerokinase; [15]
  RLU after 0 min: 1173 RLU
  RLU after 5 min: 1314 RLU
  RLU after 10 min: 1374 RLU
  RLU after 20 min: 1028 RLU
Firefly luciferase [2]; [4]
  RLU 0 min.: 29494 RLU
Firefly luciferase [2]; [5]
  RLU 10 min.: 25284 RLU
Firefly luciferase [2]; PCMPSA alone, in SRA
  interference with the bioluminescent assay of ATP (conclusion in words): only very slight interference, if at all

## apyrase
[3]
  RLU after 0 min: 64594 RLU
  RLU after 2.5 min.: 3272 RLU
  RLU after 5 min: 1130 RLU
  RLU after 20 min: 243 RLU
